In the OPERA property sets (Mansouri et al. 2018):
Non-standard residues stand in square brackets, D forms with d. Residues, ends and D or L forms follow the SMILES beside them.

CC(C)(C)C(COc1ccccc1)OC(=O)n1ccnc1 (configuration not stated)
logP: 3.58

OC[C@H]1NC[C@H](O)[C@@H](O)[C@@H]1O
logP: -1.8

CC(C)N(CCC(CCN1CCCCC1)(C(N)=O)c1ccccc1Cl)C(C)C (configuration not stated)
logP: 4.78

CC1=C(C(=O)O)N2C(=O)C(NC(NC(=O)c3nn(-c4ccccc4)c(=O)[nH]c3=O)c3ccc(O)cc3)C2SC1 (configuration not stated)
logP: 1.26

NC1C2CCC1c1cccc(C(F)(F)F)c1C2 (configuration not stated)
logP: 3.65

Cc1cccc(Nc2c([N+](=O)[O-])c(C)nn2-c2ccccc2)c1
logP: 3.25

O=c1[nH]c(=O)n(C2OC(CO)CC2F)cc1Cl (configuration not stated)
logP: -0.28

O=C1NC(=O)C(Cc2ccccc2)(Cc2ccccc2)N1
logP: 2.46

CC(=O)OCC1=C(C(=O)O)N2C(=O)C(NC(=O)Cc3cc4ccccc4s3)C2SC1 (configuration not stated)
logP: 1.68

O=c1ccnc2n1CCCC2
logP: -0.14

NC(=O)COc1ccc(OCCNCC(O)COc2ccccc2)cc1 (configuration not stated)
logP: 1.1

CN[C@@H](C)[C@H](O)c1ccccc1.Cl
logP: -2.45

CCOCCOCCOP(=S)(N1CC1)N1CC1
logP: 0.38

O=C(O)Cc1cc(O)ccc1O
logP: 0.86

CC(C)(C)C(COc1ccccc1)OC(=S)n1ccnc1 (configuration not stated)
logP: 4.27

CCCCC(=O)OC[C@H]1O[C@@H](n2cc(I)c(=O)[nH]c2=O)C[C@@H]1O
logP: 1.44

CC(C)(C)C(=O)OCC1OC(n2cc(I)c(=O)[nH]c2=O)CC1O (configuration not stated)
logP: 1.34

O=C(Nc1ccn(C2CC(O)C(CO)O2)c(=O)n1)c1ccccc1 (configuration not stated)
logP: 0.67

Cc1ccc2nc3c(c(=O)n2c1)CCC3
logP: 1.63

Nc1ccc(S(=O)(=O)N2C(=O)NC(=O)C2(c2ccccc2)c2ccccc2)cc1
logP: 3.27

CCNC(=O)CCn1ccc(=O)c(O)c1C
logP: -0.82

Cc1ccc(C(=O)CCN2CCCCC2)c(C)c1
logP: 3.71

Cc1ccc(Cn2cc(F)c(=O)[nH]c2=O)cc1
logP: 1.5

CCCCCCCCN(C)N=Nc1[nH]cnc1C(N)=O
logP: 3.22

CN(C)C(=O)OCc1cccc([N+](=O)[O-])c1
logP: 1.98

ClC(Cl)Br
logP: 2

Cc1cc2n(c1C(=O)c1ccccc1)CCC2C(=O)O (configuration not stated)
logP: 2.85

Nc1cccc(S(=O)(=O)[O-])c1.[Na+]
logP: -3.4

NC(=O)c1cc2ccccc2[nH]1
logP: 1.61

CCOP(=O)(OCC)SCS(=O)(=O)C(C)(C)C
logP: 2.76

COc1cccc(C2(O)CCCCC2CN(C)C)c1 (configuration not stated)
logP: 2.51

CCC(C(=O)OCc1ccccc1)C(COC(=O)Cc1ccccc1)Cc1cncn1C (configuration not stated)
logP: 4

COc1cccc2c1C(=O)c1c(O)c3c(c(O)c1C2=O)CC(O)(C(C)=O)CC3OC1CC(NC(=O)CN(C)C)C(O)C(C)O1 (configuration not stated)
logP: 1.26

CC1c2cccc(O)c2C(=O)C2=C(O)C3(O)C(=O)C(C(N)=O)=C(O)C(N(C)C)C3C(O)C21 (configuration not stated)
logP: -0.02

CCN(CC)C(=O)CCn1ccc(=O)c(O)c1C
logP: -0.36

CC(=O)NC(CC(N)=O)C(N)=O (configuration not stated)
logP: -2.41

CCCOc1ccc(OCC(OC(=O)n2ccnc2)C(C)(C)C)cc1 (configuration not stated)
logP: 4.1

COc1cccc2c1C(=O)c1c(O)c3c(c(O)c1C2=O)CC(O)(C(C)=O)CC3OC1CC(N(CC#N)CC(=O)O)C(O)C(C)O1 (configuration not stated)
logP: 0.03

Nc1nc(=O)n(C2OC(CO)CC2F)cc1F (configuration not stated)
logP: -0.92

Cc1onc(-c2ccccc2Cl)c1C(=O)NC1C(=O)N2C1SC(C)(C)C2C(=O)O (configuration not stated)
logP: 2.48

OCCN(CCO)CCCc1ccc(CSc2ccccc2)cc1
logP: 3.31

CC(=O)C1CCC2C3CC(C)C4=CC(=O)CCC4(C)C3C(=O)CC12C (configuration not stated)
logP: 2.75

CCCN1Cn2c(nc3ccccc3c2=O)C1C (configuration not stated)
logP: 1.4

NC(=O)c1csc([C@@H]2O[C@H](CO)[C@@H](O)[C@H]2O)n1
logP: -1.73

CCC(C(=O)OC(C)c1ccccc1)C(CO)Cc1cncn1C (configuration not stated)
logP: 2.23

CC(C)c1ccc(OCC(OC(=O)n2ccnc2)C(C)(C)C)cc1 (configuration not stated)
logP: 4.77

Clc1ccncc1
logP: 1.28

CNC(=O)N1C(=O)CN=C(c2ccccc2)c2cc([N+](=O)[O-])ccc21
logP: 1.76

Cc1c(O)ccc(O)c1C
logP: 1.36

Cc1ncc(OP(=O)(O)O)c(CO)c1O
logP: -0.64

CC(C(O)c1ccccc1)N(C)C (configuration not stated)
logP: 1.7

CCCCC(NC(Cc1ccccc1)C(=O)N1CCC(OCOC)CC1)C(=O)NC(CC1CCCCC1)C(O)CC(C(=O)NCCCN1CCOCC1)C(C)C (configuration not stated)
logP: 4.5

CCOC(=O)NC1=NCC(c2cccc(C)c2C)N1C (configuration not stated)
logP: 2.57

CCc1ncc([N+](=O)[O-])n1CCNC(=S)OC
logP: 1.46

CNC12CC(O)CCC1CCc1ccccc12 (configuration not stated)
logP: 2.37

COc1c(Cl)cc(Cl)c(O)c1C(=O)NCC1CCCN1CCF (configuration not stated)
logP: 3.66

O=C(O)C=Cc1ccc(O)cc1
logP: 1.46

Nc1cccc(Cl)c1Cl
logP: 2.82

CC(C)(C)C(COc1ccc(I)cc1)OC(=O)n1ccnc1 (configuration not stated)
logP: 4.3

CC(C)(C)C(COc1ccc(F)cc1)OC(=S)n1ccnc1 (configuration not stated)
logP: 4.37

CCn1cc(C(=O)OCOC(C)=O)c(=O)c2ccc(C)nc21
logP: 1.21

O=C1CN=C(c2ccccn2)c2cc(Br)ccc2N1
logP: 2.05

CC[C@H](C)C(=O)O[C@H]1CCC=C2C=C[C@H](C)[C@H](CC[C@@H]3C[C@@H](O)CC(=O)O3)[C@H]21
logP: 3.95

CN(c1ccccc1)S(C)(=O)=O
logP: 1.02

CCCCCCOc1ccc(CC(=O)O)cc1
logP: 3.96

CNC12CCCCC1CC(O)c1ccccc12 (configuration not stated)
logP: 1.84

CC(Cl)CCl (configuration not stated)
logP: 1.98

Nc1nc(N)c2ncn([C@H]3C=C[C@@H](CO)O3)c2n1
logP: -0.48

CCC(CC)(C(=O)NC(N)=O)C(=O)OC(C)C
logP: 1.99

COCC(=O)Cn1ccnc1[N+](=O)[O-]
logP: -0.26

CCc1c(O)c(=O)ccn1C(C)C
logP: 0.73

CC(=O)Nc1ccc(Cl)cc1
logP: 2.09

CCc1ccc(OCC(OC(=S)n2ccnc2)C(C)(C)C)cc1 (configuration not stated)
logP: 5.09

Cc1ccccc1C=O
logP: 2.26

CCCCCCn1ccc(=O)c(O)c1C
logP: 1.9

Cc1ccc(C(=O)CCN2CCCCC2)cc1
logP: 3.55

O=C(OC[C@H]1O[C@@H](n2cc(I)c(=O)[nH]c2=O)C[C@@H]1O)c1ccccc1
logP: 1.4

COC(=O)NC1=NCC(c2ccccc2)N1C (configuration not stated)
logP: 1.57

CNc1nc(C)c(C(=O)CCN2CCOCC2)s1
logP: 0.95

NC(=S)NNCc1ccc2c(c1)OCO2
logP: 0.14

OC[C@@H](O)[C@@H](O)[C@H](O)[C@@H](O)CO
logP: -2.2

CC(=O)NC1=NC(=O)C(=Cc2ccc([N+](=O)[O-])o2)S1
logP: 1.03

CCN(CC)c1cccc(S(=O)(=O)[O-])c1.[Na+]
logP: -1.6

CC(=O)N(C)C1=NC(=O)C(=Cc2ccc([N+](=O)[O-])o2)S1
logP: 1.05

CCc1[nH]ccc(=O)c1O
logP: 0.05

CCn1cc(C(=O)O)c(=O)c2cc(F)c(N3CCNCC3)nc21
logP: -0.2

COc1ncc(-c2ccncc2)cc1C#N
logP: 2.02

CS(=O)(=O)OCCC[Se]CCCOS(C)(=O)=O
logP: 0.38

CC(C)(C)C(COc1ccc(F)cc1)OC(=O)n1ccnc1 (configuration not stated)
logP: 3.68

CCCCSC(=Nc1cccnc1)SCc1ccc(C(C)(C)C)cc1
logP: 7

Clc1cccc(Cl)c1Cl
logP: 4.05

C=C1C(=O)OC2C1C(O)CC(C)C1CCC(=O)C12C (configuration not stated)
logP: 0.23

COC(=O)c1cc(=O)[nH]c(=O)[nH]1
logP: 0.63

CCCC(=NOCC)C1C(=O)CC(C)(C2CC2)OC1=O (configuration not stated)
logP: 3.28

CC1(C)S[C@@H]2[C@H](NC(=O)[C@H](N)c3ccc(O)cc3)C(=O)N2[C@H]1C(=O)O
logP: 0.87

CCC(CC)(C(=O)NC(N)=O)C(=O)OCC(=O)OC
logP: 0.99

NCC1(CC(=O)O)CCCCC1
logP: -1.1

CCCCC(=O)OCC1OC(n2cc(F)c(=O)[nH]c2=O)CC1OC(=O)CCCC (configuration not stated)
logP: 2.72

Cc1ccc(OCC(OC(=S)n2ccnc2)C(C)(C)C)cc1 (configuration not stated)
logP: 4.66

CN(C)C(=O)Nc1ccc(Oc2nnnn2C2CCCCC2)cc1
logP: 2.18

O=C(O)CCCOc1cccc2ccccc12
logP: 3.5

Cc1ccc(C(N)=S)cc1
logP: 2.01

CCOC(=O)n1c(NC(=O)OC)nc2cc(C(=O)c3ccccc3)ccc21
logP: 2.93

CC1CCCC2C1N2CC(O)Cn1ccnc1 (configuration not stated)
logP: 1.55

O=C1CN=C(c2ccccc2F)c2cc(Cl)ccc2N1CC(F)(F)F
logP: 3.36

Cc1ccc(C)c(Oc2cccc(C(=O)NC(C)C)c2)c1
logP: 4.35

CCCCN(C)C(=O)c1cccc(Oc2ccccc2)c1
logP: 3.89

O=C1C=CC(=O)c2c(O)ccc(O)c21
logP: 1.79

C[C@@H]1O[C@@H](O[C@H]2C[C@@H](O)[C@]3(CO)[C@H]4[C@H](O)C[C@]5(C)[C@@H](C6=CC(=O)OC6)CC[C@]5(O)[C@@H]4CC[C@]3(O)C2)[C@H](O)[C@H](O)[C@H]1O
logP: -2

O=C(O)COc1ccccc1[N+](=O)[O-]
logP: 1.13

OC(Cn1ccnc1)(c1ccc(F)cc1)c1ccc(-c2ccncc2)cc1 (configuration not stated)
logP: 2.47

CN1CCN(Cc2ncc([N+](=O)[O-])n2C)CC1
logP: -0.32

Clc1ccc(C(c2ccc(Cl)cc2)C(Cl)Cl)cc1
logP: 6.02

NS(=O)(=O)c1cc2c(cc1Cl)NC(c1ccccc1)=NS2(=O)=O
logP: 1.4

CN(C)C=C1OC(=O)C(C#N)=C1c1ccccc1
logP: 1.07

O=c1[nH]c(=S)ccn1[C@H]1C=C[C@@H](CO)O1
logP: -0.28

CC(=O)OCC1=C(C(=O)O)N2C(=O)[C@@H](NC(=O)CSc3ccncc3)[C@H]2SC1
logP: -1.15

COC(=O)c1c(C)[nH]c(-c2cccc(Cl)n2)c1C(=O)OC
logP: 2.65

CNC12CCCCC1CCc1ccc(OC)cc12 (configuration not stated)
logP: 3.75

CC(=O)OCC1=C(C(=O)OCOC(=O)C(C)(C)C)N2C(=O)C(NC(=O)CSc3ccncc3)C2SC1 (configuration not stated)
logP: 1.63

Nc1ccc(C(=O)O)cc1F
logP: 1.41

COc1ccccc1/C=C/C(=O)O
logP: 2.54

O=c1[nH]cc(F)c(=O)n1Oc1ccccc1
logP: 0.8

Cc1nc(N)sc1C(=O)CCN1CCCCC1
logP: 2.13

CC(=O)N[C@H](Cc1ccccc1)C(=O)N[C@H](Cc1ccccc1)C(N)=O (Ac-[dF]-[dF]-NH2)
logP: 1.19

CCOC(=O)CCCO
logP: 0.43

CN(Cc1ccc(Br)cc1)N=O
logP: 1.57

NC(=O)Nc1ccc(C(=O)O)cc1
logP: 0.73

CCc1ccc(OCC(OC(=O)n2ccnc2)C(C)(C)C)cc1 (configuration not stated)
logP: 4.1

CCOP(=O)(O)Cc1ccc(S(C)(=O)=O)cc1
logP: -0.4

O=c1c2c(nc3ccccn13)CCC2
logP: 1.19

COc1ccc(C(=O)CCCC(=O)O)cc1
logP: 1.63
